# Marks after values point to notes of the source that are not given here.
# Experiments:
# CAKI-1 = assay: NCI60 in vitro screen, Renal cancer; format: cell-based, human
# MALME-3M = assay: NCI60 in vitro screen, Melanoma; format: cell-based, human
# NCI/ADR-RES = assay: NCI60 in vitro screen, Ovarian cancer; format: cell-based, human
# HCT-2998 = assay: NCI60 in vitro screen, Colon Cancer; format: cell-based, human
# RXF 393 = assay: NCI60 in vitro screen, Renal cancer; format: cell-based, human
# NCI-H552 = assay: NCI60 in vitro screen, Non-Small Cell Lung Cancer; format: cell-based, human
# OVCAR-8 = assay: NCI60 in vitro screen, Ovarian cancer; format: cell-based, human
# HOP-92 = assay: NCI60 in vitro screen, Non-Small Cell Lung Cancer; format: cell-based, human
# RPMI-8226 = assay: NCI60 in vitro screen, Leukemia; format: cell-based, human
# SK-OV-3 = assay: NCI60 in vitro screen, Ovarian cancer; format: cell-based, human
# MCF-7 [1] = conditions: MCF-7, 10 μM
# M14 = assay: NCI60 in vitro screen, Melanoma; format: cell-based, human
# HT29 = assay: NCI60 in vitro screen, Colon Cancer; format: cell-based, human
# NCI-H23 = assay: NCI60 in vitro screen, Non-Small Cell Lung Cancer; format: cell-based, human
# IGROV1 = assay: NCI60 in vitro screen, Ovarian cancer; format: cell-based, human
# MOLT-4 = assay: NCI60 in vitro screen, Leukemia; format: cell-based, human
# KM12 = assay: NCI60 in vitro screen, Colon Cancer; format: cell-based, human
# HOP-62 = assay: NCI60 in vitro screen, Non-Small Cell Lung Cancer; format: cell-based, human
# NCI-H332M = assay: NCI60 in vitro screen, Non-Small Cell Lung Cancer; format: cell-based, human
# K-562 = assay: NCI60 in vitro screen, Leukemia; format: cell-based, human
# U251 = assay: NCI60 in vitro screen, CNS Cancer; format: cell-based, human
# T-47D = assay: NCI60 in vitro screen, Breast cancer; format: cell-based, human
# SW-620 = assay: NCI60 in vitro screen, Colon Cancer; format: cell-based, human
# MCF-7 [2] = assay: cells; conditions: Homo sapiens
# SF-268 = assay: NCI60 in vitro screen, CNS Cancer; format: cell-based, human
# SNB-19 = assay: NCI60 in vitro screen, CNS Cancer; format: cell-based, human
# LOX IMV1 = assay: NCI60 in vitro screen, Melanoma; format: cell-based, human
# HL-60(TB) = assay: NCI60 in vitro screen, Leukemia; format: cell-based, human
# OVCAR-3 = assay: NCI60 in vitro screen, Ovarian cancer; format: cell-based, human
# UACC-257 = assay: NCI60 in vitro screen, Melanoma; format: cell-based, human
# MDA-MB-231/ATCC = assay: NCI60 in vitro screen, Breast cancer; format: cell-based, human
# SR = assay: NCI60 in vitro screen, Leukemia; format: cell-based, human
# CCRF-CEM = assay: NCI60 in vitro screen, Leukemia; format: cell-based, human
# human ERβ = biological target: T1, human ERβ (Homo sapiens, UniProt Q92731); assay: Estrogen receptor fluorescence polarisation competitive binding assay, ERβ; conditions: competitive binding, fluorescence polarisation; read-out: ERβ IC50
# T1 construct: purchased Invitrogen
# 786-0 = assay: NCI60 in vitro screen, Renal cancer; format: cell-based, human
# DU-145 = assay: NCI60 in vitro screen, Prostate cancer; format: cell-based, human
# COLO 205 = assay: NCI60 in vitro screen, Colon Cancer; format: cell-based, human
# T1 sequence (Q92731 whole entry): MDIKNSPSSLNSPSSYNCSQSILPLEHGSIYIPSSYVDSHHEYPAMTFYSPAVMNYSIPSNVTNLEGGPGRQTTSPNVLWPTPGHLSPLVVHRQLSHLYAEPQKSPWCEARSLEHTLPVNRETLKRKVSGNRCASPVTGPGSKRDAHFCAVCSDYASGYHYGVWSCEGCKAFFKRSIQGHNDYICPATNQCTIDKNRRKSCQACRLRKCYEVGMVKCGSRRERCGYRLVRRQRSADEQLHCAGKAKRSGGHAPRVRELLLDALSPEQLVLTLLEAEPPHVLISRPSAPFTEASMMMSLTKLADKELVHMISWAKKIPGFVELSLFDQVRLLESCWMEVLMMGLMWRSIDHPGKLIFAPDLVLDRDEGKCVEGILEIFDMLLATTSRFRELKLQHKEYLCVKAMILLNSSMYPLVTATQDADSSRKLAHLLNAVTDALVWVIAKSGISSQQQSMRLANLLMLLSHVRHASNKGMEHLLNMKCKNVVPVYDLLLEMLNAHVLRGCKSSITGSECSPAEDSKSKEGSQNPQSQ
smiles,measurement,setting,value
"CC/C(=C(\c1ccccc1)c1ccc(OCCN(C)C(=O)CCC(=O)Oc2cc(/C=C\c3cc(OC)c(OC)c(OC)c3)ccc2OC)cc1)c1ccccc1 (mixture of isomers) [Compound 16a, N-{2-[4-((Z)-1,2-Diphenylbut-1-enyl)phenoxy]ethyl}-N-methylsuccinamic acid 2-methoxy-5-[(Z)-2-(3,4,5-trimethoxyphenyl)vinyl]phenyl ester]",Growth % (10^−5 M),"CAKI-1; CAKI-1, 10 μM",23.4%
same,GI50,"CAKI-1; Homo sapiens, CAKI-1",30.7 nM
same,GI50,"MALME-3M; Homo sapiens, Malme-3M",> 10000 nM
same,Growth % (10^−5 M),"MALME-3M; MALME-3M, 10 μM",74.86%
same,Growth % (10^−5 M),NCI/ADR-RES; 10 μM,−41.32 ^e %
same,GI50,NCI/ADR-RES; Homo sapiens,11.1 nM
same,Growth % (10^−5 M),"HCT-2998; HCT-2998, 10 μM",4.72%
same,inhibition at 10 µM,"HCT-2998; Homo sapiens, HCC-2998, one-dose, 10 μM, read-out: growth inhibition",95%
same,GI50,"HCT-2998; Homo sapiens, HCT-2998",31.7 nM
same,GI50,"RXF 393; Homo sapiens, RXF 393",39.8 nM
same,Growth % (10^−5 M),"RXF 393; RXF 393, 10 μM",12.08%
same,GI50,"NCI-H552; Homo sapiens, NCI-H552",19.7 nM
same,Growth % (10^−5 M),"NCI-H552; NCI-H552, 10 μM",−30.85 ^e %
same,GI50,"OVCAR-8; Homo sapiens, OVCAR-8",49 nM
same,Growth % (10^−5 M),"OVCAR-8; OVCAR-8, 10 μM",12.79%
same,Growth % (10^−5 M),"HOP-92; HOP-92, 10 μM",58.55%
same,GI50,"HOP-92; Homo sapiens, HOP-92",< 10 nM
same,GI50,"RPMI-8226; Homo sapiens, RPMI-8226",27.1 nM
same,Growth % (10^−5 M),"RPMI-8226; RPMI-8226, 10 μM",−18.51 ^e %
same,GI50,"SK-OV-3; Homo sapiens, SK-OV-3",36.8 nM
same,Growth % (10^−5 M),"SK-OV-3; SK-OV-3, 10 μM",17.23%
same,Growth % (10^−5 M),MCF-7 [1],10.06%
same,GI50,"M14; Homo sapiens, M14",12.9 nM
same,inhibition at 10 µM,"M14; Homo sapiens, M14, one-dose, 10 μM, read-out: growth inhibition",99%
same,Growth % (10^−5 M),"M14; M14, 10 μM",1.39%
same,Growth % (10^−5 M),"HT29; HT29, 10 μM",6.79%
same,GI50,"HT29; Homo sapiens, HT-29, HT29",489 nM
same,inhibition at 10 µM,"HT29; Homo sapiens, HT-29, HT29, one-dose, 10 μM, read-out: growth inhibition",93%
same,GI50,"NCI-H23; Homo sapiens, NCI-H23",45.9 nM
same,Growth % (10^−5 M),"NCI-H23; NCI-H23, 10 μM",12.25%
same,GI50,"IGROV1; Homo sapiens, IGROV-1, IGROV1",47.3 nM
same,Growth % (10^−5 M),"IGROV1; IGROV1, 10 μM",−26.34 ^e %
same,GI50,"MOLT-4; Homo sapiens, MOLT-4",39.8 nM
same,Growth % (10^−5 M),"MOLT-4; MOLT-4, 10 μM",36.2%
same,GI50,"KM12; Homo sapiens, KM12",< 10 nM
same,Growth % (10^−5 M),"KM12; KM12, 10 μM",−37 ^e %
same,Growth % (10^−5 M),"HOP-62; HOP-62, 10 μM",35.29%
same,GI50,"HOP-62; Homo sapiens, HOP-62",49.2 nM
same,Growth % (10^−5 M),NCI-H332M; 10 μM,57.18%
same,GI50,NCI-H332M; Homo sapiens,67.2 nM
same,GI50,"K-562; Homo sapiens, K562, K-562",< 10 nM
same,Growth % (10^−5 M),"K-562; K-562, 10 μM",41.7%
same,GI50,"U251; Homo sapiens, U-251, U251",31.6 nM
same,inhibition at 10 µM,"U251; Homo sapiens, U-251, U251, one-dose, 10 μM, read-out: growth inhibition",90%
same,Growth % (10^−5 M),"U251; U251, 10 μM",10.13%
same,Growth % (10^−5 M),T-47D; 10 μM,59.73%
same,GI50,"T-47D; Homo sapiens, T47D",> 10000 nM
same,GI50,"SW-620; Homo sapiens, SW-620",< 10 nM
same,Growth % (10^−5 M),"SW-620; SW-620, 10 μM",28.17%
same,GI50,MCF-7 [2]; MCF7,34.5 nM
same,IC50,"MCF-7 [2]; MCF7, read-out: GI50 (IC50)",36 nM
same,inhibition at 10 µM,"MCF-7 [2]; MCF7, read-out: growth inhibition",90%
same,GI50,"SF-268; Homo sapiens, SF-268",25.3 nM
same,Growth % (10^−5 M),"SF-268; SF-268, 10 μM",18.51%
same,GI50,"SNB-19; Homo sapiens, SNB-19",36.5 nM
same,Growth % (10^−5 M),"SNB-19; SNB-19, 10 μM",28.03%
same,GI50,"LOX IMV1; Homo sapiens, LOX IMV1",35.8 nM
same,Growth % (10^−5 M),"LOX IMV1; LOX IMV1, 10 μM",28.97%
same,Growth % (10^−5 M),HL-60(TB); 10 μM,28.19%
same,GI50,HL-60(TB); Homo sapiens,14.5 nM
same,GI50,"OVCAR-3; Homo sapiens, OVCAR-3",< 10 nM
same,Growth % (10^−5 M),"OVCAR-3; OVCAR-3, 10 μM",−57.79 ^e %
same,GI50,"UACC-257; Homo sapiens, UACC-257",> 10000 nM
same,Growth % (10^−5 M),"UACC-257; UACC-257, 10 μM",48.73%
same,Growth % (10^−5 M),MDA-MB-231/ATCC; 10 μM,23.19%
same,GI50,MDA-MB-231/ATCC; Homo sapiens,28.6 nM
same,Growth % (10^−5 M),SR; 10 μM,29.68%
same,GI50,SR; Homo sapiens,18.9 nM
same,Growth % (10^−5 M),CCRF-CEM; 10 μM,20.38%
same,GI50,CCRF-CEM; Homo sapiens,39.4 nM
same,IC50,human ERβ,22.7 nM
same,Growth % (10^−5 M),"786-0; 786-0, 10 μM",11.54%
same,GI50,"786-0; Homo sapiens, 786-0",185 nM
same,Growth % (10^−5 M),"DU-145; DU-145, 10 μM",−36.33 ^e %
same,GI50,"DU-145; Homo sapiens, DU-145",12.5 nM
same,Growth % (10^−5 M),"COLO 205; COLO 205, 10 μM",−55 ^e %
same,GI50,"COLO 205; Homo sapiens, COLO 205",378 nM
